Test system: K98450-129-R-PDC multicell spheroids, viability
Assay: Anticancer human tumor K98450-129-R-PDC patient-derived colon adenocarcinoma cell line growth inhibition [PI3K]
Details: for viability, T/C: stronger effect = lower value
Method in brief: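 We assembled tumor spheroids that included a stromal compartment of HUVEC and MSCs, then exposed them to targeted agents alone and together with PI3K pathway inhibitors. Concentration series descended by half-log from clinically achievable Cmax levels. Viability served as the endpoint.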

[1] = curve of first compound, second compound 0.0316 µM
[2] = curve of first compound, second compound 0.1 µM
[3] = curve of first compound, second compound 0.316 µM
[4] = curve of first compound, second compound 1 µM
[5] = second compound 0.0316 µM, first compound 0.0316 µM
[6] = second compound 0.0316 µM, first compound 0.1 µM
[7] = second compound 0.0316 µM, first compound 0.316 µM
[8] = second compound 0.0316 µM, first compound 1 µM
[9] = second compound 0.0316 µM, first compound 3.16 µM
[10] = second compound 0.0316 µM, first compound 10 µM
[11] = second compound 0.1 µM, first compound 0.0316 µM
[12] = second compound 0.1 µM, first compound 0.1 µM
[13] = second compound 0.1 µM, first compound 0.316 µM
[14] = second compound 0.1 µM, first compound 1 µM
[15] = second compound 0.1 µM, first compound 3.16 µM
[16] = second compound 0.1 µM, first compound 10 µM
[17] = second compound 0.316 µM, first compound 0.0316 µM
[18] = second compound 0.316 µM, first compound 0.1 µM
[19] = second compound 0.316 µM, first compound 0.316 µM
[20] = second compound 0.316 µM, first compound 1 µM
[21] = second compound 0.316 µM, first compound 3.16 µM
[22] = second compound 0.316 µM, first compound 10 µM
[23] = second compound 1 µM, first compound 0.0316 µM
[24] = second compound 1 µM, first compound 0.1 µM
[25] = second compound 1 µM, first compound 0.316 µM
[26] = second compound 1 µM, first compound 1 µM
[27] = second compound 1 µM, first compound 3.16 µM
[28] = second compound 1 µM, first compound 10 µM
[29] = curve of first compound, second compound 3.16 µM
[30] = curve of first compound, second compound 10 µM
[31] = second compound 3.16 µM, first compound 0.0316 µM
[32] = second compound 3.16 µM, first compound 0.1 µM
[33] = second compound 3.16 µM, first compound 0.316 µM
[34] = second compound 3.16 µM, first compound 1 µM
[35] = second compound 3.16 µM, first compound 3.16 µM
[36] = second compound 3.16 µM, first compound 10 µM
[37] = second compound 10 µM, first compound 0.0316 µM
[38] = second compound 10 µM, first compound 0.1 µM
[39] = second compound 10 µM, first compound 0.316 µM
[40] = second compound 10 µM, first compound 1 µM
[41] = second compound 10 µM, first compound 3.16 µM
[42] = second compound 10 µM, first compound 10 µM
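Also: spheroids exposed to agents for seven days before read-out.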

Cn1ncc(Cl)c1-c1cc(C(=O)NC(CN)Cc2cccc(F)c2)sc1Cl (stereo not drawn) + CC(Nc1ccc2c(c1)OCCn1cc(N3C(=O)OCC3C(F)F)nc1-2)C(N)=O
IC50 (curve of first compound, second compound 0.00316 µM): > 10 µM | IC50 (curve of first compound, second compound 0.01 µM): > 10 µM | IC50 [1]: > 10 µM | IC50 [2]: > 10 µM | IC50 [3]: > 10 µM | IC50 [4]: > 10 µM | viability, T/C (second compound 0.00316 µM, first compound 0.0316 µM): 106% | viability, T/C (second compound 0.00316 µM, first compound 0.1 µM): 98.2% | viability, T/C (second compound 0.00316 µM, first compound 0.316 µM): 105% | viability, T/C (second compound 0.00316 µM, first compound 1 µM): 95.3% | viability, T/C (second compound 0.00316 µM, first compound 3.16 µM): 93.6% | viability, T/C (second compound 0.00316 µM, first compound 10 µM): 97.2% | viability, T/C (second compound 0.01 µM, first compound 0.0316 µM): 109% | viability, T/C (second compound 0.01 µM, first compound 0.1 µM): 102% | viability, T/C (second compound 0.01 µM, first compound 0.316 µM): 110% | viability, T/C (second compound 0.01 µM, first compound 1 µM): 95.9% | viability, T/C (second compound 0.01 µM, first compound 3.16 µM): 97.6% | viability, T/C (second compound 0.01 µM, first compound 10 µM): 102% | viability, T/C [5]: 109% | viability, T/C [6]: 109% | viability, T/C [7]: 99.4% | viability, T/C [8]: 102% | viability, T/C [9]: 90.3% | viability, T/C [10]: 99.3% | viability, T/C [11]: 88.7% | viability, T/C [12]: 102% | viability, T/C [13]: 103% | viability, T/C [14]: 97.5% | viability, T/C [15]: 97.1% | viability, T/C [16]: 95% | viability, T/C [17]: 85.7% | viability, T/C [18]: 100% | viability, T/C [19]: 95.9% | viability, T/C [20]: 95.6% | viability, T/C [21]: 98.7% | viability, T/C [22]: 92.9% | viability, T/C [23]: 87.1% | viability, T/C [24]: 85.9% | viability, T/C [25]: 91.9% | viability, T/C [26]: 94.4% | viability, T/C [27]: 91% | viability, T/C [28]: 85.7%

CC(Nc1ccc2c(c1)OCCn1cc(N3C(=O)OCC3C(F)F)nc1-2)C(N)=O (stereo not drawn)
viability, T/C (compound 0.00316 µM): 107% [middle of 8 runs] | viability, T/C (compound 0.01 µM): 106% [middle of 8 runs] | viability, T/C (compound 0.0316 µM): 106% [middle of 8 runs] | viability, T/C (compound 0.1 µM): 105% [middle of 8 runs] | viability, T/C (compound 0.316 µM): 105% [middle of 8 runs] | viability, T/C (compound 1 µM): 92.3% [middle of 8 runs] | IC50 (compound alone, run of 04/24/2023): > 1 µM

C=CC(=O)N1CCN(c2nc(=O)n(-c3c(C)ccnc3C(C)C)c3nc(-c4c(O)cccc4F)c(F)cc23)C(C)C1 (stereo not drawn) + CC(Nc1ncnc2nc[nH]c12)c1cc2cccc(Cl)c2c(=O)n1-c1ccccc1
IC50 [1]: 5.34 µM | IC50 [2]: 3.4 µM | IC50 [3]: 5.92 µM | IC50 [4]: 3.54 µM | IC50 [29]: 1.84 µM | IC50 [30]: 2.02 µM | viability, T/C [5]: 94.3% | viability, T/C [6]: 96.5% | viability, T/C [7]: 79.7% | viability, T/C [8]: 74.1% | viability, T/C [9]: 53.3% | viability, T/C [10]: 44.4% | viability, T/C [11]: 106% | viability, T/C [12]: 99.7% | viability, T/C [13]: 89.2% | viability, T/C [14]: 67.9% | viability, T/C [15]: 52.4% | viability, T/C [16]: 36.5% | viability, T/C [17]: 111% | viability, T/C [18]: 105% | viability, T/C [19]: 92.1% | viability, T/C [20]: 68.5% | viability, T/C [21]: 54% | viability, T/C [22]: 46.9% | viability, T/C [23]: 113% | viability, T/C [24]: 104% | viability, T/C [25]: 89.4% | viability, T/C [26]: 73.9% | viability, T/C [27]: 46.9% | viability, T/C [28]: 42% | viability, T/C [31]: 93.5% | viability, T/C [32]: 98.1% | viability, T/C [33]: 96.9% | viability, T/C [34]: 60.5% | viability, T/C [35]: 44.5% | viability, T/C [36]: 36.6% | viability, T/C [37]: 81.2% | viability, T/C [38]: 78.4% | viability, T/C [39]: 84% | viability, T/C [40]: 67.1% | viability, T/C [41]: 39.4% | viability, T/C [42]: 32.8%

CC1(C)CCC(CN2CCN(c3ccc(C(=O)NS(=O)(=O)c4ccc(NCC5CCOCC5)c([N+](=O)[O-])c4)c(Oc4cnc5[nH]ccc5c4)c3)CC2)=C(c2ccc(Cl)cc2)C1 + CC(Nc1ncnc2nc[nH]c12)c1cc2cccc(Cl)c2c(=O)n1-c1ccccc1
IC50 [1]: 5.26 µM | IC50 [2]: 5.65 µM | IC50 [3]: 5.38 µM | IC50 [4]: 5.29 µM | IC50 [29]: 5.48 µM | IC50 [30]: 5.13 µM | viability, T/C [5]: 96.2% | viability, T/C [6]: 94.7% | viability, T/C [7]: 96.2% | viability, T/C [8]: 118% | viability, T/C [9]: 84.8% | viability, T/C [10]: 6.25% | viability, T/C [11]: 100% | viability, T/C [12]: 104% | viability, T/C [13]: 105% | viability, T/C [14]: 100% | viability, T/C [15]: 97.4% | viability, T/C [16]: 3.46% | viability, T/C [17]: 135% | viability, T/C [18]: 104% | viability, T/C [19]: 94.9% | viability, T/C [20]: 98.6% | viability, T/C [21]: 94.4% | viability, T/C [22]: 3.48% | viability, T/C [23]: 87.8% | viability, T/C [24]: 116% | viability, T/C [25]: 89% | viability, T/C [26]: 88.5% | viability, T/C [27]: 87.5% | viability, T/C [28]: 3.81% | viability, T/C [31]: 85.8% | viability, T/C [32]: 105% | viability, T/C [33]: 90.4% | viability, T/C [34]: 86.1% | viability, T/C [35]: 95.8% | viability, T/C [36]: 3.31% | viability, T/C [37]: 86.4% | viability, T/C [38]: 87.6% | viability, T/C [39]: 82.9% | viability, T/C [40]: 75.3% | viability, T/C [41]: 88.1% | viability, T/C [42]: 3.12%

Reference: PubChem BioAssay AID1963961 (Molecular Pharmacology Branch, DTP, NCI, 2024)
